From patent US20250228954A1, “Designing Antisense Oligonucleotide Delivery Peptides by Interpretable Machine Learning” (Sarepta Therapeutics, Inc., priority 2020, published 2025)
Square brackets hold non-standard residues; d marks the D form. Ends that are not written are not given here. Ahx = NCCCCCC(=O)O; βAla = NCCC(=O)O

Columns and labels:
[1] = tested on: HeLa 654 cells; test: HeLa-654 eGFP assay (corrective splicing / exon skipping by PMO IVS2-654); type: cell-based, human; settings: 5 μM, 22 h; for FOLD OVER PMO: eGFP fluorescence of PMO-peptide conjugate relative to unconjugated PMO
Experimental: With the 36 constructs synthesized, the ability to modulate PMO activity using the modified HeLa cell assay was tested. The HeLa-654 cells were stably transfected to express a nonfluorescent eGFP protein. The eGFP gene is interrupted by a mutant intron from the human β-globin gene (IVS2-654). The insertion alters pre-mRNA splicing to cause retention of a fragment in the mature mRNA that results in a nonfluorescent protein. PMO IVS2-654 base-pairs with the B-globin insertion, modifies mRNA splicing, and thereby leads to expression of fluorescent eGFP.
For treatment, the crude reaction mixture was diluted to 5 μM in media. The concentration of the modular construct was calculated based on the original concentration of the module 1-2 conjugate mixed in the reaction. Using media containing 10% fetal bovine serum (FBS), the cells were treated with each construct for 22 hours, after which the cellular fluorescence was measured by flow cytometry.
From the lists of hundreds of predicted peptide sequences, twenty candidates were selected that varied in length, charge, and predicted activity to synthesize and test. Just as with the PMO-peptide library, the PMO-Mach constructs were first tested for PMO delivery in the HeLa 654 assay at 5 μM in complete media for 22 hours and analyzed by flow cytometry (FIG. 14). Experiments were conducted using three technical triplicates and two or three biological replicates.
(§1) HeLa 654 cells were maintained in MEM supplemented with 10% (v/v) fetal bovine serum (FBS) and 1% (v/v) penicillin-streptomycin at 37° C. and 5% CO2. Eighteen hours prior to treatment, the cells were plated at a density of 5,000 cells per well in a 96-well plate in MEM supplemented with 10% FBS and 1% penicillin-streptomycin. The day of the experiment, the 384 well plate containing the crude reaction mixtures in DMSO was diluted to 100 μM by the addition of 16.8 μL of PBS to the 3.2 μL reaction mixture. Then, each construct was diluted to 5 μM in MEM supplemented with 10% FBS and 1% penicillin-streptomycin. Cells were incubated with each conjugate at a concentration of 5 μM for 22 hours at 37° C. and 5% CO2. Next, the treatment media was aspirated the cells were incubated with Trypsin-EDTA 0.25% for 15 min at 37° C. and 5% CO2, washed 1× with PBS, and resuspended in PBS with 2% FBS and 2 μg/mL propidium iodide. Flow cytometry analysis was carried out on a BD LSRII flow cytometer. Gates were applied to the data to ensure that cells that were highly positive for propidium iodide or had forward/side scatter readings that were sufficiently different from the main cell population were excluded. Each sample was capped at 5,000 gated events.
Analysis was conducted using Graphpad Prism 7. For each sample, the mean fluorescence intensity and the number of gated cells was measured (FIGS. 8 and 9) and the intensity multiplied by the cell number was calculated (FIG. 7).

[2] = tested on: HeLa 654 cells; test: Cytotoxicity by gated cell count and propidium iodide staining in flow cytometry; type: cell-based, human; settings: at the concentrations tested in dose-response, 22 h
Text: The different modules led to several noticeable trends in the level of cellular fluorescence (FIG. 6). When module 2 was DPV6, the overall construct consistently led to high fluorescence, regardless of which peptides were placed in module 3 and 4. However, when either pVEC or TP10 was placed in module 2, minor cellular fluorescence was observed. A gated cell count was used during flow cytometry as an indirect read-out to control for the toxicity of the compounds. Highly toxic compounds led to a reduction in overall cell count and non-viable cells were gated out based upon propidium iodide staining. In this experiment, it was observed that when the module 3 peptide was the nuclear localization sequence KRVK, lower cell counts were consistently observed.
In the same format as described above, HeLa 654 cells were treated with varying concentrations of Mach 2, 3, 4, and 7 for 22 hours and analyzed by flow cytometry.
as §1

| Compound | FOLD OVER PMO [1] | cytotoxicity as determined by cell count and PI staining [2] | PMO delivery / activity, result in words [1] |
| --- | --- | --- | --- |
| CSCC[C@H](NC(=O)[C@H](CCCCN)NC(=O)[C@H](CC(C)C)NC(=O)[C@H](CC(N)=O)NC(=O)[C@H](CC(N)=O)NC(=O)[C@H](CCCCN)NC(=O)[C@H](CC(C)C)NC(=O)[C@H](CC(N)=O)NC(=O)[C@H](CCCCN)NC(=O)[C@H](CCCCN)NC(=O)[C@H](CCCCN)NC(=O)[C@H](C)NC(=O)[C@H](CC(N)=O)NC(=O)[C@H](CCCNC(=N)N)NC(=O)[C@H](CC(C)C)NC(=O)[C@@H]1CCCN1C(=O)[C@@H]1CCCN1C(=O)CCCCn1nnc2c1-c1ccccc1N(C(=O)CCCCC(=O)N1C[C@@H](COP(=O)(N(C)C)N3C[C@@H](COP(=O)(N(C)C)N4C[C@@H](COP(=O)(N(C)C)N5C[C@@H](COP(=O)(N(C)C)N6C[C@@H](COP(=O)(N(C)C)N7C[C@@H](COP(=O)(N(C)C)N8C[C@@H](COP(=O)(N(C)C)N9C[C@@H](COP(=O)(N(C)C)N%10C[C@@H](COP(=O)(N(C)C)N%11C[C@@H](COP(=O)(N(C)C)N%12C[C@@H](COP(=O)(N(C)C)N%13C[C@@H](COP(=O)(N(C)C)N%14C[C@@H](COP(=O)(N(C)C)N%15C[C@@H](COP(=O)(N(C)C)N%16C[C@@H](COP(=O)(N(C)C)N%17C[C@@H](COP(=O)(N(C)C)N%18C[C@@H](COP(=O)(N(C)C)N%19C[C@@H](COP(=O)(N(C)C)N%20CCN(C(=O)OCCOCCOCCO)CC%20)O[C@@H](n%20cnc%21c(=O)[nH]c(N)nc%21%20)C%19)O[C@@H](n%19ccc(N)nc%19=O)C%18)O[C@@H](n%18cc(C)c(=O)[nH]c%18=O)C%17)O[C@@H](n%17cnc%18c(N)ncnc%18%17)C%16)O[C@@H](n%16cc(C)c(=O)[nH]c%16=O)C%15)O[C@@H](n%15cc(C)c(=O)[nH]c%15=O)C%14)O[C@@H](n%14cnc%15c(N)ncnc%15%14)C%13)O[C@@H](n%13ccc(N)nc%13=O)C%12)O[C@@H](n%12ccc(N)nc%12=O)C%11)O[C@@H](n%11cc(C)c(=O)[nH]c%11=O)C%10)O[C@@H](n%10cc(C)c(=O)[nH]c%10=O)C9)O[C@@H](n9cnc%10c(N)ncnc%109)C8)O[C@@H](n8cnc9c(N)ncnc98)C7)O[C@@H](n7ccc(N)nc7=O)C6)O[C@@H](n6ccc(N)nc6=O)C5)O[C@@H](n5ccc(N)nc5=O)C4)O[C@@H](n4cnc5c(N)ncnc54)C3)O[C@@H](n3cnc4c(=O)[nH]c(N)nc43)C1)Cc1ccccc1-2)C(=O)N[C@@H](CC(=O)O)C(=O)N1CCC[C@H]1C(=O)N[C@@H](CCCCN)C(=O)N[C@@H](Cc1ccccc1)C(=O)N[C@H](C(=O)N[C@@H](CCCCN)C(=O)N[C@@H](CCCCN)C(=O)N[C@H](C(=O)N[C@@H](CCCCN)C(=O)N[C@@H](CCC(N)=O)C(=O)NCC(=O)N[C@@H](C)C(=O)N[C@@H](CC(C)C)C(=O)N[C@@H](CCCCN)C(=O)N[C@@H](CC(C)C)C(=O)N[C@@H](CC(N)=O)C(=O)N[C@@H](CCCNC(=N)N)C(=O)N[C@@H](CCCNC(=N)N)C(=O)N[C@@H](CCCCN)C(=O)N[C@@H](CCCCN)C(=O)N[C@@H](CC(N)=O)C(=O)N[C@@H](CCCNC(=N)N)C(=O)NCC(=O)N1CCC[C@H]1C(=O)N[C@@H](CCCCN)C(=O)NCC(=O)N1CCC[C@H]1C(=O)NCCCCCC(=O)N[C@@H](CCCCN)C(=O)N[C@@H](Cc1c[nH]cn1)C(=O)N[C@@H](Cc1c[nH]c2ccccc12)C(=O)N[C@H](C(=O)N[C@H](C(N)=O)[C@@H](C)O)[C@@H](C)O)C(C)C)[C@@H](C)O (stereo partly drawn) [MACH 2] | 27 | no cytotoxicity |  |
| CC[C@H](C)[C@H](NC(=O)[C@H](CO)NC(=O)[C@H](CC(C)C)NC(=O)[C@H](CCCCN)NC(=O)CNC(=O)[C@H](CCCCN)NC(=O)[C@@H]1CCCN1C(=O)[C@H](Cc1c[nH]c2ccccc12)NC(=O)[C@H](CC(N)=O)NC(=O)[C@H](CCCCN)NC(=O)[C@H](CCCCN)NC(=O)[C@H](CC(N)=O)NC(=O)[C@H](C)NC(=O)[C@H](CCCCN)NC(=O)[C@H](CO)NC(=O)[C@H](CCCCN)NC(=O)[C@H](CCCNC(=N)N)NC(=O)[C@H](CCCCN)NC(=O)[C@H](CCCCN)NC(=O)[C@H](CCC(N)=O)NC(=O)CCCCn1nnc2c1-c1ccccc1N(C(=O)CCCCC(=O)N1C[C@@H](COP(=O)(N(C)C)N3C[C@@H](COP(=O)(N(C)C)N4C[C@@H](COP(=O)(N(C)C)N5C[C@@H](COP(=O)(N(C)C)N6C[C@@H](COP(=O)(N(C)C)N7C[C@@H](COP(=O)(N(C)C)N8C[C@@H](COP(=O)(N(C)C)N9C[C@@H](COP(=O)(N(C)C)N%10C[C@@H](COP(=O)(N(C)C)N%11C[C@@H](COP(=O)(N(C)C)N%12C[C@@H](COP(=O)(N(C)C)N%13C[C@@H](COP(=O)(N(C)C)N%14C[C@@H](COP(=O)(N(C)C)N%15C[C@@H](COP(=O)(N(C)C)N%16C[C@@H](COP(=O)(N(C)C)N%17C[C@@H](COP(=O)(N(C)C)N%18C[C@@H](COP(=O)(N(C)C)N%19C[C@@H](COP(=O)(N(C)C)N%20CCN(C(=O)OCCOCCOCCO)CC%20)O[C@@H](n%20cnc%21c(=O)[nH]c(N)nc%21%20)C%19)O[C@@H](n%19ccc(N)nc%19=O)C%18)O[C@@H](n%18cc(C)c(=O)[nH]c%18=O)C%17)O[C@@H](n%17cnc%18c(N)ncnc%18%17)C%16)O[C@@H](n%16cc(C)c(=O)[nH]c%16=O)C%15)O[C@@H](n%15cc(C)c(=O)[nH]c%15=O)C%14)O[C@@H](n%14cnc%15c(N)ncnc%15%14)C%13)O[C@@H](n%13ccc(N)nc%13=O)C%12)O[C@@H](n%12ccc(N)nc%12=O)C%11)O[C@@H](n%11cc(C)c(=O)[nH]c%11=O)C%10)O[C@@H](n%10cc(C)c(=O)[nH]c%10=O)C9)O[C@@H](n9cnc%10c(N)ncnc%109)C8)O[C@@H](n8cnc9c(N)ncnc98)C7)O[C@@H](n7ccc(N)nc7=O)C6)O[C@@H](n6ccc(N)nc6=O)C5)O[C@@H](n5ccc(N)nc5=O)C4)O[C@@H](n4cnc5c(N)ncnc54)C3)O[C@@H](n3cnc4c(=O)[nH]c(N)nc43)C1)Cc1ccccc1-2)C(=O)N[C@@H](Cc1c[nH]cn1)C(=O)N[C@@H](C)C(=O)N[C@@H](CCCCN)C(=O)N[C@@H](CC(=O)O)C(=O)N[C@@H](Cc1ccc(O)cc1)C(=O)N[C@@H](CCCCN)C(=O)N[C@@H](CCC(N)=O)C(=O)NCC(=O)N1CCC[C@H]1C(=O)N[C@@H](CCCCN)C(=O)N[C@@H](C)C(=O)N[C@@H](CCCCN)C(=O)NCCCCCC(=O)N[C@@H](CCCNC(=N)N)C(=O)N[C@@H](CCCCN)C(=O)N[C@@H](CCC(N)=O)C(=O)N[C@@H](CCCNC(=N)N)C(=O)NCCCCCC(=O)N[C@@H](CCCNC(=N)N)C(N)=O (stereo partly drawn) [MACH 3] | 38 | no cytotoxicity |  |
| MACH 6: PMO IVS2-654 conjugate of peptide ALKBRSAAKAVRWPKKAIKQASKKVAKYALKXXRKKKAASKXWLQLHWPRW (SEQ ID NO: 62) (ALK[βAla]RSAAKAVRWPKKAIKQASKKVAKYALK[Ahx][Ahx]RKKKAASK[Ahx]WLQLHWPRW; also: PMO IVS2-654 conjugate) | 43 |  |  |
| MACH 11: PMO IVS2-654 conjugate of peptide TSNLKLHLAPPVKKKALKKPLYKAKKKKKVVSPTWXTDQEW (SEQ ID NO: 66), designed to have poor activity (TSNLKLHLAPPVKKKALKKPLYKAKKKKKVVSPTW[Ahx]TDQEW; also: PMO IVS2-654 conjugate) | 4 |  | did not significantly improve PMO delivery |
| P1: PMO IVS2-654 conjugate of peptide KXKKQQGKKKHR (SEQ ID NO: 69) (K[Ahx]KKQQGKKKHR; also: PMO IVS2-654 conjugate) | 2.9 |  |  |
| P11: PMO IVS2-654 conjugate of peptide KKKKKQCKKKHRWPKXXC (SEQ ID NO: 79) (KKKKKQCKKKHRWPK[Ahx][Ahx]C; cysteine pairing not given here; also: PMO IVS2-654 conjugate) | 12.9 |  |  |
